Measurements as given in ChEMBL document CHEMBL1821548, “Structure selectivity relationship studies of 17-cyclopropylmethyl-3,14β-dihydroxy-4,5α-epoxy-6β-[(4'-pyridyl)carboxamido]morphinan derivatives toward the development of the mu opioid receptor antagonists” (Bioorg Med Chem Lett, 2011).

Tests used:
[1] = molecular target: T1, Mu-type opioid receptor (Homo sapiens, UniProt P35372); experiment: Agonist activity against mu opioid receptor expressed in CHO cells assessed as stimulation of [35S]-GTPgammaS binding relative to DAMGO; type: functional, cell-based
[2] = molecular target: Kappa-type opioid receptor (Homo sapiens, UniProt P41145); experiment: Displacement of [3H]-norBNI from kappa opioid receptor expressed in CHO cells after 1 hr; type: cell-based
[3] = molecular target: T1, Mu-type opioid receptor; experiment: Displacement of [3H]naloxone from mu opioid receptor expressed in CHO cells after 1 hr; type: cell-based
[4] = molecular target: Delta-type opioid receptor (Homo sapiens, UniProt P41143); experiment: Displacement of [3H]-NTI from delta opioid receptor expressed in CHO cells after 1 hr; type: cell-based
[5] = molecular target: T1, Mu-type opioid receptor; experiment: Agonist activity against mu opioid receptor expressed in CHO cells assessed as stimulation of [35S]-GTPgammaS binding; type: functional, cell-based
[6] = Selectivity ratio of Ki for delta opioid receptor to Ki for mu opioid receptor
[7] = Selectivity ratio of Ki for kappa opioid receptor to Ki for mu opioid receptor
[8] = molecular target: T1, Mu-type opioid receptor; details: CHO; 100 nM
Description: Agonist activity against mu opioid receptor expressed in CHO cells assessed as stimulation of [35S]-GTPgammaS binding at 100 nM relative to DAMGO

T1 sequence (P35372 whole entry): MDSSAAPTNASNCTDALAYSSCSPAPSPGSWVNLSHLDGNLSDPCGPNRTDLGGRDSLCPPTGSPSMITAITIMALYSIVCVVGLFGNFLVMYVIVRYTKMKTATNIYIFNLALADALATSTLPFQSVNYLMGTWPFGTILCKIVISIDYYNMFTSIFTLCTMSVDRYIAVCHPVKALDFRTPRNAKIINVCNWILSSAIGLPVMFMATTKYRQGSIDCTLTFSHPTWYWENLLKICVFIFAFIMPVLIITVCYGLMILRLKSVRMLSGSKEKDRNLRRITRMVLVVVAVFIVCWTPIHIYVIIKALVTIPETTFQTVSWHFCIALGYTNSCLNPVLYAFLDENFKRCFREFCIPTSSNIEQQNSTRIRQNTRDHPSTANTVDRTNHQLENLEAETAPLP
Sequence of Delta-type opioid receptor (P41143 whole entry): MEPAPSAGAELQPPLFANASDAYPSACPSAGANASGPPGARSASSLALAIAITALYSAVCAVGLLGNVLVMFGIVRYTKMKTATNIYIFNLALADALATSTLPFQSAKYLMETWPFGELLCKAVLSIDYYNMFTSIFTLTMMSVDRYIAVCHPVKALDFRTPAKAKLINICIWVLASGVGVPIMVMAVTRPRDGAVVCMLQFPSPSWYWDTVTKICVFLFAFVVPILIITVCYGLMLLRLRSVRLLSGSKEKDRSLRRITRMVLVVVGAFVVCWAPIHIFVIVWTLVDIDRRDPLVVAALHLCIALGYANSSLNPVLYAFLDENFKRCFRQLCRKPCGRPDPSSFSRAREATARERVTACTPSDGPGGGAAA
Sequence of Kappa-type opioid receptor (P41145 whole entry): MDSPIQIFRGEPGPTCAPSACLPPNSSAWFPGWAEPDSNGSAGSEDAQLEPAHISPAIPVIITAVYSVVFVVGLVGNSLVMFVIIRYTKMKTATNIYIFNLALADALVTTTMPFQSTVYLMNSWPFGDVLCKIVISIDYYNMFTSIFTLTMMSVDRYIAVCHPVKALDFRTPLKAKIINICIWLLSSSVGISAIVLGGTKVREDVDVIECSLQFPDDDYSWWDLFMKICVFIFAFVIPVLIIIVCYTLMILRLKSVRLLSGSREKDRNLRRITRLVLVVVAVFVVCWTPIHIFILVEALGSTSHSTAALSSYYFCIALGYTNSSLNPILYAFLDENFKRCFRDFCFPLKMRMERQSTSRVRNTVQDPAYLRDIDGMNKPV

## O=C(CNC(=O)c1ccncc1)N[C@@H]1CC[C@@]2(O)[C@H]3Cc4ccc(O)c5c4[C@@]2(CCN3CC2CC2)[C@H]1O5
[1]
  Emax: 22.6%
[2]
  Ki: 203 nM
[3]
  Ki: 0.73 nM
[4]
  Ki: 526 nM
[5]
  EC50: 2.84 nM

## O=C(CCc1ccncc1)N[C@@H]1CC[C@@]2(O)[C@H]3Cc4ccc(O)c5c4[C@@]2(CCN3CC2CC2)[C@H]1O5
[1]
  Emax: 22.6%
[6]
  Ratio Ki: 516
[7]
  Ratio Ki: 2.9
[2]
  Ki: 1.65 nM
[3]
  Ki: 0.57 nM
[4]
  Ki: 294 nM
[5]
  EC50: 1.46 nM

## O=C(N[C@@H]1CC[C@@]2(O)[C@H]3Cc4ccc(O)c5c4[C@@]2(CCN3CC2CC2)[C@H]1O5)c1ccnc(Br)c1
[1]
  Emax: 50.8%
[6]
  Ratio Ki: 276
[7]
  Ratio Ki: 0.3
[2]
  Ki: 0.18 nM
[3]
  Ki: 0.63 nM
[4]
  Ki: 174 nM
[5]
  EC50: 1.19 nM

## O=C(N[C@@H]1CC[C@@]2(O)[C@H]3Cc4ccc(O)c5c4[C@@]2(CCN3CC2CC2)[C@H]1O5)c1ccncc1Br
[1]
  Emax: 23.2%
[6]
  Ratio Ki: 285
[7]
  Ratio Ki: 6.3
[2]
  Ki: 2.83 nM
[3]
  Ki: 0.45 nM
[4]
  Ki: 128 nM
[5]
  EC50: 1.31 nM

## O=C(Cc1ccncc1)N[C@@H]1CC[C@@]2(O)[C@H]3Cc4ccc(O)c5c4[C@@]2(CCN3CC2CC2)[C@H]1O5
[1]
  Emax: 32.8%
[6]
  Ratio Ki: 1020
[7]
  Ratio Ki: 10.6
[2]
  Ki: 9.01 nM
[3]
  Ki: 0.85 nM
[4]
  Ki: 866 nM
[5]
  EC50: 2.32 nM

## CN1CCC(C(=O)N[C@@H]2CC[C@@]3(O)[C@H]4Cc5ccc(O)c6c5[C@@]3(CCN4CC3CC3)[C@H]2O6)CC1
[1]
  Emax: 37.2%
[6]
  Ratio Ki: 2970
[7]
  Ratio Ki: 7.5
[2]
  Ki: 6.49 nM
[3]
  Ki: 0.87 nM
[4]
  Ki: 2590 nM
[5]
  EC50: 5.08 nM

## Cc1cnccc1C(=O)N[C@@H]1CC[C@@]2(O)[C@H]3Cc4ccc(O)c5c4[C@@]2(CCN3CC2CC2)[C@H]1O5
[1]
  Emax: 30.6%
[6]
  Ratio Ki: 470
[7]
  Ratio Ki: 166
[2]
  Ki: 96.7 nM
[3]
  Ki: 0.58 nM
[4]
  Ki: 274 nM
[5]
  EC50: 1.52 nM

## O=C(N[C@@H]1CC[C@@]2(O)[C@H]3Cc4ccc(O)c5c4[C@@]2(CCN3CC2CC2)[C@H]1O5)c1ccncc1Cl
[1]
  Emax: 24.9%
[6]
  Ratio Ki: 746
[7]
  Ratio Ki: 29.6
[2]
  Ki: 19.9 nM
[3]
  Ki: 0.67 nM
[4]
  Ki: 502 nM
[5]
  EC50: 2.32 nM

## C[C@@H](O)[C@H](NC(=O)[C@H]1NC(=O)[C@H]([C@@H](C)O)NC(=O)[C@H](CCCNC(=N)N)NC(=O)[C@@H](Cc2c[nH]c3ccccc23)NC(=O)[C@H](Cc2ccc(O)cc2)NC(=O)[C@@H](NC(=O)[C@H]2Cc3ccccc3CN2)CSSC1(C)C)C(N)=O
[8]
  Emax: 1.99%

## O=C(N[C@@H]1CC[C@@]2(O)[C@H]3Cc4ccc(O)c5c4[C@@]2(CCN3CC2CC2)[C@H]1O5)c1ccnc(Cl)c1
[1]
  Emax: 58.2%
[6]
  Ratio Ki: 6110
[7]
  Ratio Ki: 1.5
[2]
  Ki: 0.15 nM
[3]
  Ki: 0.1 nM
[4]
  Ki: 602 nM
[5]
  EC50: 0.83 nM

## Cc1cc(C(=O)N[C@@H]2CC[C@@]3(O)[C@H]4Cc5ccc(O)c6c5[C@@]3(CCN4CC3CC3)[C@H]2O6)ccn1
[1]
  Emax: 43.3%
[6]
  Ratio Ki: 232
[7]
  Ratio Ki: 1.5
[2]
  Ki: 0.58 nM
[3]
  Ki: 0.39 nM
[4]
  Ki: 90.1 nM
[5]
  EC50: 1.13 nM
